From US7846943B2, “Azolopyridin-2-one derivatives as lipase and phospholipase inhibitors” (Sanofi-Aventis, priority 2005, dated 2010)

Target: T1, endothelial lipase (EL) (Homo sapiens, UniProt Q9Y5X9)
T1 construct: made in house; host or cells: recombinant cell lines (CHO, HEK293); concentrated conditioned medium used as enzyme solution
T1 sequence (Q9Y5X9 21-500): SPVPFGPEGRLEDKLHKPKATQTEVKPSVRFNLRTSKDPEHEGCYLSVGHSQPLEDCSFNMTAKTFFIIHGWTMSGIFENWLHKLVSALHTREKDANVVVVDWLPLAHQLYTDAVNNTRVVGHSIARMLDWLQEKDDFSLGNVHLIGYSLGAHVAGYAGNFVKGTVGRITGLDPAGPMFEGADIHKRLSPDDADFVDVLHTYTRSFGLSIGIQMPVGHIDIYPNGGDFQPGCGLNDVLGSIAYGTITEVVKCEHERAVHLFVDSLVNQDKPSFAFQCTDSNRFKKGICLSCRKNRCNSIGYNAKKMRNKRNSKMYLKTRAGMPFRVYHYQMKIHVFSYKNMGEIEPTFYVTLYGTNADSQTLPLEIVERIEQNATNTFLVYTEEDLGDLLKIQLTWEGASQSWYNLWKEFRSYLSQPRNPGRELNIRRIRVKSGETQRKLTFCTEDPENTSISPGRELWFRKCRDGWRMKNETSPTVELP
Experiment: Further EL inhibition assay
Assay type: biochemical
Details: Bodipy-labelled phospholipid substrate, 37° C., 90 minutes, HPTLC fluorescence readout; EL from conditioned medium of recombinant cell lines (CHO, HEK293)
Source text: EL is released as secretory protein in high concentration into cell culture medium (conditioned medium) by recombinant cell lines (CHO, HEK293). This is employed as enzyme solution after concentration.
The enzymatic activity is reduced as a function of the inhibitor concentration used, and the inhibitor concentration at which a half-maximum enzymatic activity is observed is called IC50.
The phospholipase-specific substrate 1,2-bis(4,4-difluoro-5,7-dimethyl-4-bora-3a,4a-diaza-s-indacene-3-undecanoyl)-sn-glycero-3-phosphocholine, (manufacturer Molecular Probes) is used to characterize the enzymatic activity of endothelial lipase and the effect of inhibitors. Hydrolysis of the A1 ester linkage of this phospholipid by the enzyme liberates the fluorescent dye Bodipy which can be detected after separation by thin-layer chromatography on an HPTLC plate (silica gel 60, Merck) or directly in the reaction vessel by measuring the fluorescence. The substrate solution is prepared by dissolving 100 μg of 1,2-bis(4,4-difluoro-5,7-dimethyl-4-bora-3a,4a-diaza-s-indacene-3-undecanoyl)-sn-glycero-3-phospho-choline (manufacturer Molecular Probes) in 100 μl of DMSO and taking up in 2.4 mg of tripalmitin (Sigma) in 393 μl of chloroform which comprises 20 mg/ml DOP-choline (1,2-dioleoyl-sn-glycero-3-phosphocholine). 39.3 μl of this lipid mixture are transferred into a fresh reaction vessel, and the solvent is evaporated off. The lipid mixture is dissolved in 4 ml of 200 mM TRIS-HCl, 150 mM sodium chloride, pH=7.4, by sonication twice. The subsequent enzymic reaction takes place at 37° C. for 90 minutes. For this purpose, 20 μl of the substrate solution are incubated with 2 μl of inhibitor of appropriate concentration (dissolved in 10% DMSO, using 10% strength DMSO solution for control) and 2 μl of enzyme solution (conditioned medium). The 4 μl of the assay mixture are loaded onto an HPTLC plate (silica gel 60, Merck), and the liberated fluorescent dye is separated for detection with an eluent (diethyl ether:petroleum benzine:acetic acid [78:22:1]). After evaporation of the eluent, the plate is read in a fluorescence scanner. An increased liberation of the fluorescent dye in the uninhibited reaction is to be observed as a measure of the enzymic activity.

IC50 [nM] | SMILES
0.5 | O=C(NC1CCCc2ccccc21)n1c(=O)oc2cccnc21 (stereo not drawn) [Example 13, 2-Oxo-oxazolo[4,5-b]pyridin-3-(1,2,3,4-tetrahydronaphthalen-1-yl)carboxamide]
50 | Cc1ccccc1CNC(=O)n1c(=O)oc2cccnc21 [Example 1, 2-Oxo-oxazolo[4,5-b]pyridin-3-(2-methylbenzyl)carboxamide]
180 | O=C(N[C@@H]1CCc2ccccc21)n1c(=O)oc2cccnc21 [Example 14]
180 | CCCCCCCCCCCCNC(=O)n1c(=O)oc2cccnc21 [Example 16, 2-Oxo-oxazolo[4,5-b]pyridin-3-dodecylcarboxamide]
10 | Cc1ccc(CNC(=O)n2c(=O)oc3cccnc32)cc1C [Example 5, 2-Oxo-oxazolo[4,5-b]pyridine-3-(3,4-dimethylbenzyl)carboxamide]
390 | Cc1cccc(CNC(=O)n2c(=O)oc3cccnc32)c1 [Example 4, 2-Oxo-oxazolo[4,5-b]pyridine-3-(3-methylbenzyl)carboxamide]
61 | Cc1ccc2oc(=O)n(C(=O)NCc3ccccc3C)c2n1 [Example 17, 5-Methyl-2-oxo-oxazolo[4,5-b]pyridine-3-(2-methylbenzyl)carboxamide]
230 | O=C(N[C@H]1CCc2ccccc21)n1c(=O)oc2cccnc21 [Example 15]
10 | Cc1ccccc1CNC(=O)n1c(=O)oc2cc(Br)cnc21 [Example 2, 6-Bromo-2-oxo-oxazolo[4,5-b]pyridine-3-(2-methylbenzyl)carboxamide]

The next lines start with the molecule.

SMILES | IC50 [nM]
CCCCNC(=O)n1c(=O)oc2cccnc21 [Example 11, 2-Oxo-oxazolo[4,5-b]pyridine-3-butylcarboxamide] | 354
CCCCCCNC(=O)n1c(=O)oc2cccnc21 [Example 3, 2-Oxo-oxazolo[4,5-b]pyridine-3-hexylcarboxamide] | 69
CCCCCCCCNC(=O)n1c(=O)oc2cccnc21 [Example 19, 2-Oxo-oxazolo[4,5-b]pyridine-3-octylcarboxamide] | 83
CCCCCCCNC(=O)n1c(=O)oc2cccnc21 [Example 9, 2-Oxo-oxazolo[4,5-b]pyridine-3-heptylcarboxamide] | 11
CCCCCCCCCNC(=O)n1c(=O)oc2cccnc21 [Example 20, 2-Oxo-oxazolo[4,5-b]pyridine-3-nonylcarboxamide] | 90
O=C(NCC1CCCCC1)n1c(=O)oc2cccnc21 [Example 18, 2-Oxo-oxazolo[4,5-b]pyridine-3-cyclohexylmethylcarboxamide] | 480
